# Measured values as given in ChEMBL document CHEMBL1201862, “PubChem BioAssay data set” (2004).
#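 Tested at 5 concentrations; 48 h exposure; 96-well plates; endpoints linearly interpolated, else capped at highest concentration. GI50 = concentration required for 50% inhibition of growth.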 The source made the active and inactive calls. No stated cut-off is given here; in the data, active = GI50 up to about 1.1 µM and inactive = higher.
# Columns and labels:
# Test in all cases: inhibition of tumour cell growth, NCI panel, 48 h
# MOLT-4 = test system: MOLT-4
# HOP-92 = test system: HOP-92
# SF-295 = test system: SF-295
# IGROV-1 = test system: IGROV-1
# UO-31 = test system: UO-31
# SF-539 = test system: SF-539
# OVCAR-5 = test system: OVCAR-5
# TK-10 = test system: TK-10
# HCT-116 = test system: HCT-116
# A498 = test system: A498
# CAKI-1 = test system: CAKI-1
# KM-20L2 = test system: KM-20L2
# K562 = test system: K562
# HCT-15 = test system: HCT-15
# XF498 = test system: XF498
# NCI-H460 = test system: NCI-H460
# UACC-257 = test system: UACC-257
# HOP-62 = test system: HOP-62
# SK-MEL-28 = test system: SK-MEL-28
# ACHN = test system: ACHN
# OVCAR-3 = test system: OVCAR-3
# SNB-78 = test system: SNB-78
# NCI-H226 = test system: NCI-H226
# HCC 2998 = test system: HCC 2998
# DLD-1 = test system: DLD-1
# 786-0 = test system: 786-0
# SK-OV-3 = test system: SK-OV-3
# HT-29 = test system: HT-29
# SNB-19 = test system: SNB-19
# OVCAR-4 = test system: OVCAR-4
# M14 = test system: M14
# KM12 = test system: KM12
# LOX IMVI = test system: LOX IMVI
# COLO 205 = test system: COLO 205
# M19-MEL = test system: M19-MEL
# EKVX = test system: EKVX
# DMS-114 = test system: DMS-114
# U-251 = test system: U-251
# SNB-75 = test system: SNB-75
# DMS-273 = test system: DMS-273
# LXFL 529 = test system: LXFL 529
# NCI-H23 = test system: NCI-H23
# NCI-H522 = test system: NCI-H522
# A549 = test system: A549
# OVCAR-8 = test system: OVCAR-8
# SR = test system: SR
# SW-620 = test system: SW-620
# RPMI-8226 = test system: RPMI-8226
# SN12C = test system: SN12C
# SF-268 = test system: SF-268
# HOP-18 = test system: HOP-18
# Malme-3M = test system: Malme-3M
# HL-60 = test system: HL-60
# RXF 393 = test system: RXF 393
# SK-MEL-5 = test system: SK-MEL-5
# SK-MEL-2 = test system: SK-MEL-2
# CCRF-CEM = test system: CCRF-CEM
# UACC-62 = test system: UACC-62
compound,measurement,setting,value
CC1=C/C(=C2/N=C(N(C)C)SS2)C(C)=N1.[O-][Cl+3]([O-])([O-])O,GI50,MOLT-4,> 100 µM (inactive)
same,GI50,HOP-92,> 100 µM (inactive)
same,GI50,SF-295,> 100 µM (inactive)
same,GI50,IGROV-1,> 100 µM (inactive)
same,GI50,UO-31,> 100 µM (inactive)
same,GI50,SF-539,> 100 µM (inactive)
same,GI50,OVCAR-5,> 100 µM (inactive)
same,GI50,TK-10,> 100 µM (inactive)
same,GI50,HCT-116,> 100 µM (inactive)
same,GI50,A498,> 100 µM (inactive)
same,GI50,CAKI-1,> 100 µM (inactive)
same,GI50,KM-20L2,> 100 µM (inactive)
same,GI50,K562,42.1 µM (inactive)
same,GI50,HCT-15,> 100 µM
same,GI50,XF498,> 100 µM (inactive)
same,GI50,NCI-H460,> 100 µM (inactive)
same,GI50,UACC-257,> 100 µM (inactive)
same,GI50,HOP-62,> 100 µM (inactive)
same,GI50,SK-MEL-28,> 100 µM (inactive)
same,GI50,ACHN,> 100 µM (inactive)
same,GI50,OVCAR-3,> 100 µM (inactive)
same,GI50,SNB-78,> 100 µM (inactive)
same,GI50,NCI-H226,> 100 µM (inactive)
same,GI50,HCC 2998,> 100 µM (inactive)
same,GI50,DLD-1,> 100 µM (inactive)
same,GI50,786-0,> 100 µM (inactive)
same,GI50,SK-OV-3,> 100 µM (inactive)
same,GI50,HT-29,> 100 µM (inactive)
same,GI50,SNB-19,> 100 µM (inactive)
same,GI50,OVCAR-4,71.3 µM (inactive)
same,GI50,M14,> 100 µM (inactive)
same,GI50,KM12,> 100 µM (inactive)
same,GI50,LOX IMVI,37.3 µM (inactive)
same,GI50,COLO 205,3.07 µM (inactive)
same,GI50,M19-MEL,10.6 µM (inactive)
same,GI50,EKVX,> 100 µM (inactive)
same,GI50,DMS-114,> 100 µM (inactive)
same,GI50,U-251,> 100 µM (inactive)
same,GI50,SNB-75,> 100 µM (inactive)
same,GI50,DMS-273,> 100 µM (inactive)
same,GI50,LXFL 529,> 100 µM (inactive)
same,GI50,NCI-H23,6.47 µM (inactive)
same,GI50,NCI-H522,4.33 µM (inactive)
same,GI50,A549,> 100 µM (inactive)
same,GI50,OVCAR-8,> 100 µM (inactive)
same,GI50,SR,> 100 µM (inactive)
same,GI50,SW-620,> 100 µM (inactive)
same,GI50,RPMI-8226,> 100 µM (inactive)
same,GI50,SN12C,> 100 µM (inactive)
same,GI50,SF-268,> 100 µM (inactive)
same,GI50,HOP-18,> 100 µM (inactive)
same,GI50,Malme-3M,21.8 µM (inactive)
same,GI50,HL-60,> 100 µM (inactive)
same,GI50,RXF 393,> 100 µM (inactive)
COC1C=C(Nc2cccc(Cl)c2)C(=O)C1 (stereo not given),GI50,MOLT-4,49.3 µM (inactive)
same,GI50,HOP-92,39.5 µM (inactive)
same,GI50,SF-295,54 µM (inactive)
same,GI50,IGROV-1,> 100 µM (inactive)
same,GI50,UO-31,41.2 µM (inactive)
same,GI50,SF-539,58.2 µM (inactive)
same,GI50,OVCAR-5,47.4 µM (inactive)
same,GI50,TK-10,> 100 µM (inactive)
same,GI50,HCT-116,40.2 µM (inactive)
same,GI50,A498,15.7 µM (inactive)
same,GI50,CAKI-1,50.9 µM (inactive)
same,GI50,KM-20L2,55.5 µM (inactive)
same,GI50,K562,41.6 µM (inactive)
same,GI50,XF498,26.9 µM (inactive)
same,GI50,NCI-H460,44.4 µM (inactive)
same,GI50,UACC-257,> 100 µM (inactive)
same,GI50,HOP-62,> 100 µM (inactive)
same,GI50,SK-MEL-28,> 100 µM (inactive)
same,GI50,ACHN,60 µM (inactive)
same,GI50,OVCAR-3,65.3 µM (inactive)
same,GI50,SNB-78,48.4 µM (inactive)
same,GI50,NCI-H226,36.4 µM (inactive)
same,GI50,SK-MEL-5,83 µM (inactive)
same,GI50,HCC 2998,53.8 µM (inactive)
same,GI50,DLD-1,51.4 µM (inactive)
same,GI50,786-0,> 100 µM (inactive)
same,GI50,SK-OV-3,48.8 µM (inactive)
same,GI50,HT-29,65.3 µM (inactive)
same,GI50,SNB-19,64.3 µM (inactive)
same,GI50,OVCAR-4,> 100 µM (inactive)
same,GI50,SK-MEL-2,71 µM (inactive)
same,GI50,M14,> 100 µM (inactive)
same,GI50,KM12,71 µM (inactive)
same,GI50,LOX IMVI,> 100 µM (inactive)
same,GI50,COLO 205,10.4 µM (inactive)
same,GI50,M19-MEL,> 100 µM (inactive)
same,GI50,EKVX,29.4 µM (inactive)
same,GI50,DMS-114,34.3 µM (inactive)
same,GI50,U-251,32.3 µM (inactive)
same,GI50,SNB-75,43.9 µM (inactive)
same,GI50,DMS-273,50.4 µM (inactive)
same,GI50,CCRF-CEM,63.1 µM (inactive)
same,GI50,LXFL 529,50.8 µM (inactive)
same,GI50,NCI-H23,41.5 µM (inactive)
same,GI50,NCI-H522,24.9 µM (inactive)
same,GI50,A549,18.5 µM (inactive)
same,GI50,OVCAR-8,96.2 µM (inactive)
same,GI50,SR,58.3 µM (inactive)
same,GI50,SW-620,53.2 µM (inactive)
same,GI50,SN12C,64.9 µM (inactive)
same,GI50,UACC-62,60 µM (inactive)
same,GI50,SF-268,45.8 µM (inactive)
same,GI50,HOP-18,19.1 µM (inactive)
same,GI50,Malme-3M,> 100 µM (inactive)
same,GI50,HL-60,36 µM (inactive)
same,GI50,RXF 393,23.4 µM (inactive)
